17 molecules from PubChem BioAssay (NCI) can be followed below.

Test systems include COLO 205 colon; EKVX NSCLC; HOP-92 NSCLC; LOX IMVI melanoma; OVCAR-4 ovarian; SK-MEL-28 melanoma; UO-31 renal.
Common to all, as to assay: NCI-60 cell line screen, 48 h

The structures appear in SMILES notation.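 Exposure lasted 48 hours, with cells grown in 96-well plates and compounds tested at five concentrations. Definition used: TGI = concentration required for complete inhibition of growth.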

`Oc1cccc(-c2cn3cc(C(F)(F)F)ccc3n2)c1`: the TGI is above 100 µM in the assay on COLO 205 colon; 70.9 µM with EKVX NSCLC; above 100 µM with HOP-92 NSCLC; above 100 µM with LOX IMVI melanoma; above 100 µM in the assay on OVCAR-4 ovarian; above 100 µM in the assay with SK-MEL-28 melanoma. Besides, the TGI with UO-31 renal was above 100 µM.

As to `Cc1ccc(C(=O)Nc2ccc(S(=O)(=O)O)c3cc(S(=O)(=O)O)cc(S(=O)(=O)O)c23)cc1NC(=O)c1cccc(NC(=O)Nc2cccc(C(=O)Nc3cc(C(=O)Nc4ccc(S(=O)(=O)O)c5cc(S(=O)(=O)O)cc(S(=O)(=O)O)c45)ccc3C)c2)c1` (tested in a mixture with another compound), the TGI with COLO 205 colon, in the assay on EKVX NSCLC, in the assay with HOP-92 NSCLC, in the assay with LOX IMVI melanoma, in the assay with OVCAR-4 ovarian and with SK-MEL-28 melanoma was above 50 µM in each case. The TGI in the assay on UO-31 renal is above 50 µM.

As for `O=C(OCCC12CC3CC(CC(C3)C1)C2)c1ccc(NCc2cc(O)ccc2O)cc1`, the TGI with COLO 205 colon was 1.2 µM; in the assay with EKVX NSCLC it was 4.88 µM; in the assay on HOP-92 NSCLC it was 16.8 µM; in the assay on LOX IMVI melanoma, 4.37 µM; with OVCAR-4 ovarian, 3.17 µM; in the assay with SK-MEL-28 melanoma, 2.24 µM. Moreover, the TGI in the assay on UO-31 renal was determined as 1.58 µM.

On to `C#CCn1c(=O)c(Cl)cn(/C(=C/C(=O)OCC)C(=O)OCC)c1=O`, for which the TGI in the assay with COLO 205 colon is 2.5 µM; with EKVX NSCLC it was 34.3 µM; in the assay on HOP-92 NSCLC, 22 µM; in the assay on LOX IMVI melanoma it was 19.9 µM; in the assay on OVCAR-4 ovarian it was 38.8 µM; in the assay on SK-MEL-28 melanoma, 38.9 µM. In the assay with UO-31 renal, this molecule had a TGI of 10.6 µM.

`N#Cc1ccc(Oc2nc3ccc(C(F)(F)F)cc3nc2-c2ccccc2)cc1`: the TGI is 50.9 µM in the assay with COLO 205 colon; 32.5 µM in the assay with EKVX NSCLC; 27.5 µM with HOP-92 NSCLC; 91.1 µM with LOX IMVI melanoma; 32.4 µM in the assay on OVCAR-4 ovarian; 30.2 µM with SK-MEL-28 melanoma. Also, the TGI with UO-31 renal is 46.1 µM.

Turning to `C#CC(O)/C=C/C(O)CCCC(O)CC#CC(O)C#CC(O)CCCC(O)/C=C/CCCC(=O)CCCCCCCCCCCCCCCC(O)C(O)C#CC(=O)O` (centres undefined), the TGI in the assay on COLO 205 colon is above 50 µM; in the assay on EKVX NSCLC, above 50 µM; in the assay on HOP-92 NSCLC, above 50 µM; with LOX IMVI melanoma it was 20.8 µM; with OVCAR-4 ovarian it was 28.2 µM; with SK-MEL-28 melanoma it was above 50 µM. Further, the TGI with UO-31 renal is 22.1 µM.

Regarding `Cc1nnc(-n2c(O)cc(=O)n(-c3ccccc3)c2=S)nc1/C=C/c1ccc(N(C)C)cc1`, the TGI with COLO 205 colon is 21.2 µM; in the assay on EKVX NSCLC, above 100 µM; in the assay with HOP-92 NSCLC, above 71.9 µM; with LOX IMVI melanoma, 17.5 µM; in the assay on OVCAR-4 ovarian it was above 58.1 µM; in the assay with SK-MEL-28 melanoma it was above 50.6 µM. Besides, the TGI in the assay with UO-31 renal came out at 19.9 µM.

Take `O=c1cc(N=Nc2ccc(Cl)cc2)[nH]c(=O)[nH]1`: the TGI was found to be 5.81 µM in the assay on COLO 205 colon; 8.5 µM with EKVX NSCLC; 5.48 µM in the assay on HOP-92 NSCLC; 3.45 µM in the assay with LOX IMVI melanoma; 9.03 µM in the assay with OVCAR-4 ovarian; 13.5 µM with SK-MEL-28 melanoma. In the assay with UO-31 renal, this molecule displayed a TGI of 10.6 µM.

Consider `C=CCCCCCCCCCOC1C=CC(OC(C)=O)C(COC(C)=O)O1` (centres undefined), for which the TGI with COLO 205 colon, with EKVX NSCLC, in the assay on HOP-92 NSCLC, with LOX IMVI melanoma, with OVCAR-4 ovarian and in the assay with SK-MEL-28 melanoma was above 100 µM in each case. Further, the TGI in the assay with UO-31 renal was above 100 µM.

With `Cc1ccc(S(=O)(=O)NC(=O)NC(Cc2ccc(O)c(O)c2)C(=O)O)cc1` (centres undefined), the TGI in the assay with COLO 205 colon, in the assay with EKVX NSCLC, with HOP-92 NSCLC, in the assay with LOX IMVI melanoma, with OVCAR-4 ovarian and in the assay on SK-MEL-28 melanoma was above 100 µM each time. The molecule further returned a TGI in the assay with UO-31 renal above 100 µM.

For `c1ccc(C(CCN2CC3CCC(CC3)C2)c2ccccc2)cc1`, the TGI with COLO 205 colon is 25.1 µM; in the assay with EKVX NSCLC, above 100 µM; in the assay on HOP-92 NSCLC it was 64.4 µM; in the assay on LOX IMVI melanoma, 30.6 µM; in the assay with OVCAR-4 ovarian it was above 100 µM; with SK-MEL-28 melanoma, above 100 µM. The TGI in the assay on UO-31 renal was 45.7 µM.

`CCN(CC)CCCOc1cc2c(cc1OC)C(=O)N1CCC[C@H]1C=N2`: the TGI is 38.6 µM with COLO 205 colon; above 100 µM in the assay on EKVX NSCLC; 70.9 µM with HOP-92 NSCLC; 31.3 µM in the assay on LOX IMVI melanoma; above 100 µM in the assay on OVCAR-4 ovarian; 45.9 µM in the assay on SK-MEL-28 melanoma. In the assay on UO-31 renal, this molecule had a TGI above 100 µM.

As to `O=[N+]([O-])c1c2nc3n(c2cc2c1nc1n2CCC1)CCC3`, the TGI in the assay on COLO 205 colon, in the assay with EKVX NSCLC, in the assay on HOP-92 NSCLC, in the assay with LOX IMVI melanoma, in the assay on OVCAR-4 ovarian and with SK-MEL-28 melanoma was above 100 µM in each case. This molecule also registered a TGI in the assay on UO-31 renal above 100 µM.

Regarding `C=C(C(=O)OC)c1cc2ccccc2n1S(=O)(=O)c1ccccc1`, the TGI in the assay on COLO 205 colon is 3.82 µM; in the assay with EKVX NSCLC, 37.7 µM; with HOP-92 NSCLC it was 3.34 µM; in the assay with LOX IMVI melanoma, 8.21 µM; in the assay on OVCAR-4 ovarian, 11.3 µM; in the assay with SK-MEL-28 melanoma, 5.79 µM. In the assay with UO-31 renal, this molecule yielded a TGI of 9.41 µM.

With `NS(=O)(=O)c1nnc(NS(=O)(=O)c2ccccc2C(=O)O)s1`, the TGI in the assay with COLO 205 colon, with EKVX NSCLC, in the assay on HOP-92 NSCLC, with LOX IMVI melanoma, in the assay on OVCAR-4 ovarian and in the assay on SK-MEL-28 melanoma was above 100 µM throughout. The molecule also came in with a TGI with UO-31 renal above 100 µM.

Turning to `Cc1cc2nc(N3C(=O)/C(=C/c4ccc(Cl)cc4)N=C3c3ccccc3)sc2cc1C`, the TGI with COLO 205 colon was 43.3 µM; in the assay on EKVX NSCLC, 91.2 µM; in the assay with HOP-92 NSCLC, 56.5 µM; in the assay with LOX IMVI melanoma, 56.2 µM; in the assay with OVCAR-4 ovarian, 91.8 µM; in the assay on SK-MEL-28 melanoma it was above 100 µM. The TGI in the assay with UO-31 renal is above 100 µM.

With `CC(=O)Oc1ccc(/C=C/C(=O)O[C@H]2CCCC[C@@H]2OC(=O)/C=C/c2ccc(OC(C)=O)c(OC(C)=O)c2)cc1OC(C)=O`, the TGI in the assay with COLO 205 colon was 46.6 µM; with EKVX NSCLC it was 44 µM; with HOP-92 NSCLC, 33.7 µM; in the assay with LOX IMVI melanoma, 15.4 µM; in the assay on OVCAR-4 ovarian, above 100 µM; in the assay with SK-MEL-28 melanoma, 33.1 µM. In addition, the TGI with UO-31 renal worked out at 20.6 µM.
